US10392423B2, “Peptide-based inhibitors of MLL/SET1 family core complexes” (The Research Foundation for the State University of New York, priority 2017, dated 2019)
Where “and” joins values, the source holds several entries; their conditions need not be identical. Equal entries are not always repeated. Where two headings read alike, the source gives them in different places. Values belong to the molecule of their own block, whether it stands above or below them.

Tests used:
WDR5 [1] = target: T1, WDR5 (Homo sapiens, UniProt P61964); conditions: ITC; reported values of other inhibitors; read-out: Dissociation Constant Kd towards WDR5; cited from earlier work
T1 construct: the experimental cell containing full-length WDR5 (20 μM); His; made in house; host or cells: Escherichia coli Rosetta II (DE3) pLysS

WDR5 [2] = target: T1, WDR5; assay: Isothermal titration calorimetry (ITC) binding to WDR5
Description: Isothermal titration calorimetry (ITC). Purified full-length WDR5 and Win6mer peptide were extensively dialyzed in separate Micro Float-A-Lyzer® Dialysis Devices, MWCO 500-1000 Da (Spectrum Labs) against sample buffer consisting of 20 mM Tris pH 7.5, 300 mM NaCl, 1 mM TCEP, 1 μM ZnCl2 buffer. ITC experiments were carried out at 20° C. using a VP-ITC micro-calorimeter (MicroCal). After an initial delay of 120 sec, Win6mer (200 μM) was titrated into the experimental cell containing full-length WDR5 (20 μM) over the course of 45 injections, 5 μL each. Reference power was set to 10 μCal/sec and stirring speed was set to 295 rpm. Data were integrated using NITPIC. SEDPHAT was used to fit the integrated data to a single-site heterogeneous association model, using simulated annealing and Maxquardt-Levenberg algorithms. Automatic confidence interval search with projection method was applied to estimate the error of the determined thermodynamic parameters. Confidence interval was set to 2σ (95%). ITC figure was generated using GUSSI.

MLL1 core complex = target: T2, MLL1 core complex (Homo sapiens, UniProt P61964); assay: Core complex methyltransferase inhibition, scintillation proximity assay; assay type: biochemical
T2 construct: Full-length WRAD constructs in pHis parallel expression vectors; His; made in house; host or cells: Escherichia coli Rosetta II (DE3) pLysS
Description: (§1) MLL Core Complex inhibition by Win6mer. Assay conditions: MLL core complexes were reconstituted by mixing purified GST-SET domains (MLL1, MLL4, MLL2, MLL3, SETd1A, and SETd1B) with WDR5, RbBP5, ASH2L, and DPY-30 in stoichiometric amounts (GST-SET:W:R:A:D 1:1:1:1:2). The activity of each core complex was assessed under the following conditions: 2 μM SET1 core complex, 80 μM biotinylated H3 substrate peptide, 0.68 μM ^3H-AdoMet (0.5 μCi) at 15° C. in Assay Buffer (50 mM Tris pH 8.5, 200 mM NaCl, 5 mM MgCl2, 5% glycerol), in a total volume of 10 μL. Core complex- or H3 peptide-only reactions incubated with ^3H-AdoMet served as background controls. Reactions were quenched with 167 mM EDTA (ethylenediaminetetraacetic acid). Each sample was diluted in 50 μL Buffer 2 containing 0.2 mg/mL BSA and then transferred to 96-well streptavidin-coated FlashPlate® Microplates (Perkin Elmer). Samples were incubated overnight at 4° C. to allow binding of the biotinylated H3 peptide to the streptavidin-coated surface prior to scintillation counting in Hidex Sense microplate reader (LabLogic). Determination of linear ranges: The activity of MLL core complexes towards H3K4me0, H3K4me1, or H3K4me2 substrate peptides was assayed as described above. Reactions were quenched at varying time points with 167 mM EDTA and prepared for scintillation counting on Streptavidin FlashPlates®. A plot of counts per minute (CPM) vs. time was constructed from which the linear range was determined. Single time points within the linear range were selected for each SET1 core complex for performing inhibition studies: H3K4me0: MLL1, MLL2*, SETd1A, and SETd1B*—5 min, MLL4—3 min, MLL3—15 min. H3K4me1: MLL1—5 min, MLL4—3 min, SETd1A—15 min, SETd1B—45 min. H3K4me2: SETd1A—2 hr, SETd1B—1 hr. (*1 μM of MLL2 and SETd1B core complex were used for H3K4me0 reactions). Dose response curves: Inhibition studies were performed in order to determine the efficiency of Win6mer as an MLL core complex inhibitor. The activity of each MLL core complex towards H3 substrate peptides was assessed (as described above) with increasing doses of Win6mer (0, 0.005, 0.05, 0.10, 0.5, 1.0, 2.5, 5.0, 10.0, and 50 μM). Reactions were quenched with 167 mM EDTA at the determined time points and prepared for scintillation counting on streptavidin-coated FlashPlastes® as described above.
(§2) The activity of SET1 core complexes at each Win6mer concentration point was normalized to the activity of the uninhibited core complex to obtain the relative methyltransferase activity. Inhibition data were plotted as relative methyltransferase activity vs. log [Win6mer] (nM). The Win6mer IC50 values for MLL1 and SETd1A core complexes were determined by fitting the data to a dose response with variable slope equation in Sigma Plot.

MLL2 core complex = target: T3, MLL2 core complex (Homo sapiens, UniProt P61964); assay: as above; assay type: biochemical; conditions: H3K4me0 substrate
T3 construct: Full-length WRAD constructs in pHis parallel expression vectors; His; made in house; host or cells: Escherichia coli Rosetta II (DE3) pLysS
Description: as §1, §2

MLL3 core complex = target: T4, MLL3 core complex (Homo sapiens, UniProt P61964); assay: as above; assay type: biochemical; conditions: H3K4me0 substrate
T4 construct: Full-length WRAD constructs in pHis parallel expression vectors; His; made in house; host or cells: Escherichia coli Rosetta II (DE3) pLysS
Description: as §1, §2

MLL4 core complex = target: T5, MLL4 core complex (Homo sapiens, UniProt P61964); assay: as above; assay type: biochemical; conditions: for IC50: 2 μM core complex, Win6mer up to 50 μM, read-out: Inhibition Efficiency, IC50
T5 construct: Full-length WRAD constructs in pHis parallel expression vectors; His; made in house; host or cells: Escherichia coli Rosetta II (DE3) pLysS
Description: as §1, §2

SETd1B core complex = target: T6, SETd1B core complex (Homo sapiens, UniProt P61964); assay: as above; assay type: biochemical; conditions: for IC50: Win6mer up to 50 μM, read-out: Inhibition Efficiency, IC50
T6 construct: Full-length WRAD constructs in pHis parallel expression vectors; His; made in house; host or cells: Escherichia coli Rosetta II (DE3) pLysS
Description: as §1, §2

[3] = tested on: isolated SET1 family SET domains; assay: Isolated SET domain methyltransferase activity with Win6mer (radiometric, fluorography/LSC); assay type: biochemical, human; conditions: 100 μM Win6mer; isolated SET domains without WRAD
Description: Methyltransferase Assays. MLL core complex Win motif mutants. […] Reactions were quenched with SDS-loading buffer and separated by SDS-PAGE using a 4-12% Bis-Tris gel (Life Technologies) run at 200V for 30 minutes. The gels were enhanced at room temperature for 30 minutes (Enlightning, Perkin Elmer Inc.) then dried for 2.5 hours at 72° C. under constant vacuum. The dried gels were exposed to film (Kodak Biomax MS Film) at −80° C. for 4-24 hours prior to developing. Liquid scintillation counting (LSC) was performed by excising gel bands corresponding to histone H3 peptides, which were dissolved in 750 μL of Solvable (Perkin Elmer Inc.), incubated at room temperature for 30 minutes followed by incubation at 50° C. for 3 hours. The solubilized volume of each sample was transferred to liquid scintillation vials containing 10 mL of Ultima Gold XL liquid scintillation cocktail (Perkin Elmer Inc.). Samples were dark adapted for 1 hour then counted for 5 minutes each with a two-sigma error cut-off using an all-purpose scintillation counter (Beckman Coulter).
MLL SET domains treated with Win6mer. Isolated SET1 family SET domains (5 μM) were incubated with 1 μCi of ^3H-AdoMet (Perkin Elmer Inc.) and 100 μM of H3K4me0, H3K4me1, or H3K4me2 peptides, with and without 100 μM Win6mer, in Assay Buffer at 15° C. for 8 hours. Reactions were quenched with SDS-loading buffer. […]

[4] = target: T7, SET1 family core complex assembly (WDR5, RbBP5, ASH2L) (Homo sapiens, UniProt P61964); assay: GST pull-down of endogenous WRAD components from MCF-7 cell extracts with or without Win6mer; assay type: binding; conditions: 10 μM Win6mer
T7 construct: host or cells: MCF-7 cell extract
Description: For pull-down assays using cell extracts, a 3 μM concentration of each GST-tagged SET domain was incubated with 100 μg of MCF-7 cell extract for 16 hours at 4° C. Following the initial incubation, 20 μL of a 50:50 slurry of glutathione agarose beads was added to each sample and incubated for an additional 2 hours at 4° C. Samples were washed 3× in radioimmunoprecipitation (RIPA) buffer. Samples were eluted from beads by boiling the samples at 95° C. in SDS-loading buffer for 10 minutes. Samples of the supernatant were separated on a 4-12% Bis-Tris gel and transferred to a PVDF membrane at 30V for 1 hour. PVDF membranes were blocked for 1 hour with a 5% non-fat milk solution then incubated with primary antibody (1:2,000) for 1 hour at room temperature. Blots were washed 4 times then incubated with an HRP-conjugated anti-rabbit secondary antibody (1:5,000) for 1 hour at room temperature. Blots were washed an additional 4 times, then visualized by chemiluminesence (Clarity Western, BioRad) on a BioRad ChemiDoc MP Imager using the chemiluminesence setting.

SMILES: COC(=O)c1ccc(N2CCN(C)CC2)c(NC(=O)c2cccc(OC)c2)c1 [WDR5-0103]
- Kd (WDR5 [1]): 450 nM

- increase in binding affinity over the best naturally occurring Win motif sequence (WDR5 [2]): ~18 fold
- Kd (WDR5 [2]; read-out: Dissociation Constant Kd towards WDR5): ~3 nM and 2.9 nM
- IC50 (MLL1 core complex; 1.8 μM of enzyme complex assayed, read-out: IC50): 2200 nM
- IC50 (MLL1 core complex; 2 μM of enzyme complex assayed, read-out: average IC50): 2200 nM
- IC50 (MLL1 core complex; H3K4me1 substrate, 2 μM core complex, read-out: Inhibition Efficiency, IC50 [95% confidence interval]): 2200 nM
- methyltransferase activity of core complex on treatment (MLL2 core complex): uninhibited
- IC50 (MLL2 core complex; 1 μM core complex, Win6mer up to 50 μM, read-out: Inhibition Efficiency, IC50): > 50000 nM
- methyltransferase activity of core complex on treatment (MLL3 core complex): uninhibited
- IC50 (MLL3 core complex; 2 μM core complex, Win6mer up to 50 μM, read-out: Inhibition Efficiency, IC50): > 50000 nM
- methyltransferase activity of core complex on treatment (MLL4 core complex; H3K4me0 substrate): uninhibited
- IC50 (MLL4 core complex; H3K4me0 substrate): > 50000 nM
- IC50 (MLL4 core complex; H3K4me1 substrate): > 50000 nM
- methyltransferase activity of core complex on treatment (SETd1B core complex; H3K4me0 substrate): uninhibited
- IC50 (SETd1B core complex; H3K4me0 substrate, 1 μM core complex): > 50000 nM
- IC50 (SETd1B core complex; H3K4me1 substrate, 2 μM core complex): > 50000 nM
- IC50 (SETd1B core complex; H3K4me2 substrate, 2 μM core complex): > 50000 nM
- effect on intrinsic monomethyltransferase activity of SET1 family members [3]: did not affect
- RbBP5/ASH2L binding of MLL2, MLL3, MLL4 and SETd1B [4]: only a modest reduction
- RbBP5/ASH2L interaction with MLL1 and SETd1A complexes [4]: near total loss
- ability of all six SET1 family members to interact with endogenous WDR5 [4]: greatly reduced
SMILES: CC(=O)N[C@@H](C)C(=O)N[C@@H](CCCNC(=N)N)C(=O)N[C@H](C(=O)N[C@@H](CCC(=O)O)C(=O)N[C@H](C(=O)N[C@@H](Cc1ccc(O)cc1)C(N)=O)C(C)C)[C@@H](C)O [Win6mer, Ac-ARTEVY-NH2]
